# Data published in patent publication US6583114B2, “Fracture healing using pthrp analogs” (Roche Palo Alto LLC, priority 1997, dated 2003).
# Legend:
# [1] = test system: segmental femoral defect; assay: Segmental femoral defect rat fracture model (Example 1); assay type: in vivo; settings: for bone growth in the defects (weekly radiographic density of segmented bone defect) relative to control: FIG. 1, after four weeks of treatment; for bone growth in the defects (weekly radiographic density of segmented bone defect) relative to control / bone healing and fracture repair, treated versus control animals: subcutaneous daily; for radiographic density ratio of the segmented bone to the contralateral femur: FIG. 2, after six weeks of treatment, relative to control treated rats; for bone healing and fracture repair, treated versus control animals: radiography, sacrifice at 6 weeks
# Method: T. A. Einhorn et al. “The Healing of Segmented Bone Defects Induced by Demineralized Bone Matrix. A Radiographic and Biomechanical Study,” J. Bone Joint, 66:274-279 (1984.
# Adult male Sprague-Dawley rats weighing about 300 grams were maintained on Laboratory Rodent Diet 5001 (PMI Feeds, St. Louis, Mo.) and water ad libitum. All rats received only water for 12 hours prior to surgery. The animals were anesthetized prior to surgery by IP injection with ketamine (80 mg/kg) and xylazine (5 mg/kg). A single dose of procaine penicillin was given intramuscularly for prophylaxis against infection.
# A lateral approach to the femur was used and a pre-drilled high density polyethylene plate was fixed along the anterior cortex of the femur. During this placement the periosteum of the femur was extensively stripped. A […] non-critical sized segmental defect was created in the mid portion of the femur shaft. The wound was closed with nylon and chromic sutures.
# Postoperatively, the rats were placed in cages with 48 hour post-operative access to food pellets. The animals were monitored at least once daily and animals displaying any signs of illness were examined and given appropriate therapy if necessary.
# Rats were divided into groups as shown in Table 1 and either a control vehicle (saline) or a PTHrP analog as described herein was administered subcutaneously daily starting on post-operative day 1. Radiographic analyses were performed weekly. Animals were sacrificed at 6 weeks and compared by radiography.
# Sedated rats were placed in the prone position with hindlimbs externally rotated. Serial radiographs of each femur (involved femur and contralateral femur) were taken weekly starting with postoperative week 1. An aluminium phantom device with known density values was included in each radiograph for calibration. Each radiograph was placed on a translumination board and a picture taken using a DCS 420 digital Kodak camera. These images were then transferred to a Gateway 2000 IBM compatible computer and digitized using image analysis software (Sigma Scan©). An outline of the defect was traced and the average density of the area of the osteotomy measured in treated animals relative to control animals. […] The average density of the osteotomy was also compared to the average density of the contralateral femur for each weekly reading. […] After sacrifice (6 weeks), the femurs (experimental and contralateral) were dissected free of soft tissue. Fine grain radiographs were taken of the femurs in the lateral plane. The osteotomy was considered united when there was osseous continuity of the femur across more than 25% of the cross sectional diameter of the defect.
# [2] = test system: intramembraneous bone defect; assay: Intramembraneous bone healing, drill hole defects in distal femur and proximal tibia (Example 3); assay type: in vivo, rabbit; settings: for intramembraneous bone formation relative to vehicle treated animals: 2 or 10 μg/kg/day subcutaneous daily; for femoral defects healed / tibial defects healed: day 21
# Excerpt: Rabbits were generally anesthesized and subjected to surgery to create four surface defects, one in each distal femur and one in each proximal tibia. A posterior lateral surgical incision measuring approximately 3 cm. was made to expose the distal lateral femoral condyle. Bone proximal to the knee joint was subperiosteally exposed and a 5 mm drill hole was made, keeping the drill bit cool by constant irrigation. The wound was irrigated with normal saline. Deep tissue was closed with a running 3-0 chronic suture followed by closure of the subticular layer with a running 3-0 nylon suture and three to four interrupted stainless steel sutures. A second 3 cm. incision was made over the medial proximal tibia and a 5 mm drill hole was made in the proximal medial tibia. The wound was closed as described previously. The entire procedure was repeated on the contralateral limb.
# Stock solutions of PTHrP analog C, (MAP1-10)^22-31His^26hPTHrP(1-34)NH2, and PTHRP analog D, (MAP1-10)^22-31hPTHrP(1-34)NH2, at 800 μg/ml were prepared by sterile filtration through an 0.22 micron filter and diluted in vehicle to either 20 μg/ml or 100 μg/ml just before administration. Vehicle was 30 mg/ml mannitol, 30/mg/ml sucrose, 0.12 mg/ml Tween™ 80, 0.17 mg/ml acetic acid and 2.33 mg/ml sodium acetate trihydrate. PTHrP analogs at either 2 μg/kg/day or 10 μg/kg/day was administered daily by subcutaneous injection to the surgically treated animals.
# Animals were X-rayed weekly for the duration of the study. Densitometric measurements were made using a transilluminating scanner and MetaMorph™ (Universal Imaging, West Chester, Pa.) software. Radiographs of the lower extremities were performed in internal and external rotation on post-operative day 10 and 21. The animals were sacrificed on post-operative day 30. At the end of the study, animals were euthanized by pentobarbital overdose, tissues were harvested from the left and right femurs and tibias were analyzed by x-ray and histological analysis.
# [3] = test system: ulnar osteotomy; assay: Ulnar osteotomy model, corticosteroid induced delayed healing (Example 4); assay type: in vivo, rabbit
# Method: Adult male New Zealand White rabbits were used in all experiments. In Part I, ten rabbits were divided into two equal groups and in Part II, twenty rabbits were divided equally. Non critical sized (1 mm) defects were created bilaterally in each rabbit. From two months prior to surgery through six weeks post-operative, all rabbits received daily subcutaneous injections of either prednisone (0.15 mg/kg) in sterile water (experimental group) or sterile saline (control group). Beginning on the first post-operative day, the experimental group were administered daily sub cutaneious infections of PTHrP analog D (0.01 mg/kg), while the control group received injections of normal saline. In Part I, animals were sacrificed at six weeks after creation of the osteotomy. In Part II, animals were sacrificed once radiographic union was reached bilaterally, or in cases of non-union at ten weeks post-operative. In both sets of experiments, radiological intensity and healing area were analyzed every other week starting two weeks (Part I) or four weeks (Part II) post-operatively. Serial radiographs of the forelimbs were taken and digitized and the bone area was quantified using image analysis software (Sigma Scan Pro). Photodensitometry was used to quantitate the mineral content of the newly formed bone at sites of osteotomy and callus formation. After sacrifice, high resolution faxitron radiographs were taken of both limbs in the anteroposterior and lateral planes, allowing for analysis of fracture callus dimension and size.
# [4] = test system: fracture healing; settings: intermittent treatment; ovariectomized rats; Kim et al.; cited from earlier work
# [5] = high dose group (10 μg/kg/day s.c.)
# [6] = low dose group (2 μg/kg/day s.c.), no complete healing in controls
molecule,measurement,setting,value
(MAP1-10)^22-31Ala^19hPTHrP(1-34)NH2 [PTHrP analog B],bone growth in the defects (weekly radiographic density of segmented bone defect) relative to control,[1],greater than in the control animals
same,radiographic density ratio of the segmented bone to the contralateral femur,[1],increased bone density
(MAP1-10)^22-31hSer^34PTHrP(1-34)THIQ NH2,"bone healing and fracture repair, treated versus control animals",[1],accelerated bone healing and fracture repair
(MAP1-10)^22-31hPTHrP(1-34)NH2 [PTHrP analog D],intramembraneous bone formation relative to vehicle treated animals,[2],accelerated intramembraneous bone formation
same,tibial defects filled with mineralized tissue,"[2]; at sacrifice (day 30), high dose, radiographic analysis, p<0.01 vs control (less than 10%)",over 85%
same,percent fill of femoral defects versus control treated femoral defects,"[2]; at sacrifice, p<0.01",significant greater percent fill
same,femoral defects healed,[2]; [5],50%
same,tibial defects healed,[2]; [5],75%
same,femoral defects healed,[2]; [6],40%
same,tibial defects healed,[2]; [6],40%
same,torsional strength (stiffness and maximum torque) versus vehicle-treated control limbs,"[3]; Part I, biomechanical",significantly greater
same,"intensities at the osteotomy sites, anteroposterior and lateral faxitrons, treated versus control limbs","[3]; Part I, six weeks",significantly greater
same,"intensity of proximal and distal ulnar diaphyses, treated versus control limbs","[3]; Part I, six weeks",significantly greater
same,"intensity of the external calluses (lateral), treated versus control limbs","[3]; Part I, six weeks",also greater
same,limbs that achieved union,"[3]; Part I, six weeks, 0.01 mg/kg daily s.c., prednisone, two out of ten in vehicle controls, FIG. 5",Nine out ten
same,area of the osteotomy versus vehicle control limbs,"[3]; Part II, after sacrifice",significantly smaller
same,"radiographic intensity at the osteotomy site, ulnar diaphysis and callus area versus vehicle control limbs","[3]; Part II, after sacrifice, p<0.05 at osteotomy site",greater radiographic intensity
same,"radiographic intensity at the osteotomy site, external calluses and ulnar diaphyses versus control limbs","[3]; Part II, four weeks, p<0.01 at osteotomy site",greater radiographic intensity
same,combined callus areas versus control limbs,"[3]; Part II, four weeks, p<0.05",greater
same,callus intensity or area versus control limbs,"[3]; Part II, six weeks",no differences
same,"intensity at the osteotomy site versus control limbs, in vivo radiography","[3]; Part II, six weeks",trend of increased intensity
same,union rate,"[3]; Part II, six weeks, radiographic union",complete union rate
"(MAP1-10)^22-31c[Lys^13, Asp^17]hPTHrP(1-34)NH2","bone healing and fracture repair, treated versus control animals",[1],accelerated bone healing and fracture repair
(MAP1-10)^22-31His^26hPTHrP(1-34)NH2 [PTHrP analog C],bone growth in the defects (weekly radiographic density of segmented bone defect) relative to control,[1],greater than in the control animals
same,radiographic density ratio of the segmented bone to the contralateral femur,[1],increased bone density
same,union of the defect in high resolution radiographs,"[1]; FIG. 3, after treatment for six weeks, control defect remains non-united",has healed
same,intramembraneous bone formation relative to vehicle treated animals,[2],accelerated intramembraneous bone formation
"parathyroid hormone (protein, UniProt P01270 32-115, looked up, Parathyroid hormone recombinant, Recombinant human (1-84) parathyroid hormone, per the cited Kim et al. titles) Parathyroid hormone: SVSEIQLMHNLGKHLNSMERVEWLRKKLQDVHNFVALGAPLAPRDAGSQRPRKKEDNVLVESHEKSLGEADKADVNVLTKAKSQ",fracture healing,[4],improves fracture healing
